Results: patent US8981100B2, “Use of novel coumarins as glutathione and thiol labels” (Life Technologies Corporation, priority 2007, dated 2015)
Values joined by “and” are separate entries in the source; they are usually repeats but may differ in a detail not shown here. Equal values may be shown once. Where a name gives a salt, the structure may show the parent alone. Values belong to the molecule of their own block, whether it stands above or below them.

What was measured:
U-2 OS cells [1] = test: effect of BSO treatment on Example 2 staining in U-2 OS cells; format: cell-based, human; settings: BSO 4 mM overnight, Example 2 40 uM, varied staining time, 3.7% formaldehyde fixation, nuclear region
Procedure: (§1) Cells are plated into 96-well microplates and allowed to recover for several hours or overnight. For testing effects of drugs on intracellular thiol/glutathione content, normal growth medium is removed and replaced with normal growth medium containing the test drug. The solution is incubated for several minutes to days. Growth medium is then removed and mixture is rinsed twice with DPBS with glucose/calcium/magnesium (Invitrogen #14287). The compound of Examples 1, 2 or 4 is added in DPBS (Invitrogen #14287), with a concentration up to 100 uM (typically 20 uM). The solution is incubated in a 37 degree C. incubator for 5-30 minutes (typically 30 minutes). Cells can be imaged after dye labeling.
(§2) Aldehyde fixation: The dye solution is removed and formaldehyde 3.7% (Sigma F1635, or higher quality) in DPBS (Invitrogen #14190) is added and incubated at room temperature in a fume hood for 30 minutes. The formaldehyde fixative is then removed and cells are rinsed with DPBS (Invitrogen #14190) twice. Cells are kept in PBS.
(§3) To quantitate the images of cells stained with the Example compounds, one of the image analysis “BioApplcations” of Arrayscan VTI is used. […] Pixel intensity of the dye in cells are measured in regions (Nucleus, and/or “CytoRing”) defined by the cell identification method based on the nuclear counter stain. […]

U-2 OS cells [2] = test: effect of quinone toxicants on Example 2 staining in U-2 OS cells; format: cell-based, human; settings: toxicant 2 hours, high concentration 33.3 uM in steps of 1/3, Example 2 30 min, formaldehyde fixation, nuclear region
Procedure: as §1, §2
To quantitate the images of cells stained with the Example compounds, one of the image analysis “BioApplcations” of Arrayscan VTI is used. The basic principle of the software is described as follows: Individual cells in an image are identified using the intensity profile of nuclear stain (e.g. TO-PRO-3). The regions derived from the identified nuclear region in individual cells is obtained (“CytoRing”). Pixel intensity of the dye in cells are measured in regions (Nucleus, and/or “CytoRing”) defined by the cell identification method based on the nuclear counter stain. Cell-level data (intensity and other attributes of each cell in all acquired images) are then reported by the computer for further processing and analysis.

[3] = tested on: Clone 9 cells (Rat liver cells); test: effect of DEM treatment on Clone 9 cells, Example 2 multiplexed with YOYO-1; format: cell-based; settings: DEM 2 hours, at higher concentration of DEM
Procedure: Cells are plated into 96-well microplates and allowed to recover for several hours or overnight. For testing effects of drugs on intracellular thiol/glutathione content, normal growth medium is removed and replaced with normal growth medium containing the test drug. The solution is incubated for several minutes to days. Growth medium is then removed and mixture is rinsed twice with DPBS with glucose/calcium/magnesium (Invitrogen #14287). The compound of Examples 1, 2 or 4 is added in DPBS (Invitrogen #14287), with a concentration up to 100 uM (typically 20 uM). The solution is incubated in a 37 degree C. incubator for 5-30 minutes (typically 30 minutes). Cells can be imaged after dye labeling. Aldehyde fixation: The dye solution is removed and formaldehyde 3.7% (Sigma F1635, or higher quality) in DPBS (Invitrogen #14190) is added and incubated at room temperature in a fume hood for 30 minutes. The formaldehyde fixative is then removed and cells are rinsed with DPBS (Invitrogen #14190) twice. Cells are kept in PBS. To quantitate the images of cells stained with the Example compounds, one of the image analysis “BioApplcations” of Arrayscan VTI is used. […] Pixel intensity of the dye in cells are measured in regions (Nucleus, and/or “CytoRing”) defined by the cell identification method based on the nuclear counter stain. […]

[4] = absorption and emission maxima of the dyes; format: physicochemical
U-2 OS cells [5] = test: staining intensity of dyes in fixed U-2 OS cells, measured at the nuclear region; format: cell-based, human; settings: dye concentration 40 uM, 30 min staining, 3.7% formaldehyde fixation
Procedure: as §1
Aldehyde fixation: The dye solution is removed and formaldehyde 3.7% (Sigma F1635, or higher quality) in DPBS (Invitrogen #14190) is added and incubated at room temperature in a fume hood for 30 minutes. […]
(§4) The material is imaged with a fluorescence microscope with filter set for Hoechst 33342 (e.g. Arrayscan VTI (Thermo Fisher Scientific/Cellomics) to acquire the images automatically).
as §3

U-2 OS cells [6] = test: cellular staining pattern in U-2 OS cells; format: cell-based, human
Procedure: as §1, §2, §4

U-2 OS cells [7] = test: SDS-PAGE of labeled U-2 OS cells (+/- BSO) to identify the intracellular target of the dye; format: cell-based, human; settings: (+/-) BSO 4 mM overnight, Example 2 40 uM for 60 min
Procedure: U-2 OS cells (ATCC HTB-96, human osteosarcoma cells) were plated in 10-cm dishes and incubated overnight in a 37 degree C. cell culture incubator. The cells were then treated with DL-Buthionine-(S,R)-sulfoximine (BSO, 4 mM in growth medium) for overnight (Control=no BSO treatment). The cells are rinsed cells 3 times with 10 mL of DPBS (Invitrogen #14287).
Labeling of cells: Example 2 (40 uM) in DPBS (Invitrogen #14287) was incubated at room temperature for 1 hour. The dye solution was removed and cells rinsed with DPBS (Invitrogen #14287) twice. The cells were scraped off the dish in the presence of DPBS and transferred to a 15 mL conical tube. The cells were pelleted by centrifugation—(5 min. at 5000 rpm, Centrific centrifuge, Fisher Scientific) and resuspended in DPBS, followed by pelleting cells by centrifugation for 5 min at 1000×g. The cells were resuspended in 170 μl DPBS and, to one half, 1 μl Protease Inhibitor (Sigma, P8340) was added, followed by 2 μl 1 M NEM for 30 min and 4 μl 1 M DTT for 30 min.
Processed samples were resolved with SDS-PAGE (NuPAGE 12% Bis-Tris, Invitrogen, NP0342BOX) run in MES buffer (Invitrogen, NP0002). LDS sample buffer (NP0007) and Molecular weight standard (SeeBluePlus2 Prestained Standard LC5925) were obtained from Invitrogen. […]

SMILES: CCCCS(=N)(=O)CCC(N)C(=O)O (racemic) [BSO, DL-Buthionine-(S,R)-sulfoximine]
- effect on Example 2 staining intensity (U-2 OS cells [1]): reduction of Example 2 staining

SMILES: O=C1C=CC(=O)C=C1 [BQ, 1,4-benzoquione]
- effect on Example 2 staining intensity (U-2 OS cells [2]): decrease of staining at high toxicant concentrations

SMILES: COC(=O)/C=C\C(=O)OC [DEM, Dimethyl maleate]
- effect on Example 2 intensity ([3]; Example 2 40 uM 30 min): decrease of Example 2 signal (left shift)
- effect on YOYO-1 intensity ([3]; YOYO-1 1 uM 30 min): increase of YOYO-1 signal (up shift)

- absorption maximum ([4]; in methanol): 405 nm
- emission maximum ([4]; in methanol): 493 nm
SMILES: O=c1cc(CCl)c2cc3c4c(c2o1)CCCN4CCC3 [Example 1, 2,3,6,7-tetrahydro-9-chloromethyl-1H,5H-quinolizino(9,1-gh)coumarin]
- staining intensity (brightness) relative to comparator dyes (U-2 OS cells [5]): brighter than CMAC and mBCl
- cellular staining pattern (U-2 OS cells [6]): prominent in nuclear area and diffuse stain in the cytoplasm, with low staining in the cell periphery

- absorption maximum ([4]; in methanol): 408 nm and 413 nm
- emission maximum ([4]; in methanol): 497 nm and 515 nm
SMILES: O=c1cc(CBr)c2cc3c4c(c2o1)CCCN4CCC3 [Example 2, 2,3,6,7-tetrahydro-9-bromomethyl-1H,5H-quinolizino(9,1-gh)coumarin]
- staining intensity (brightness) relative to comparator dyes (U-2 OS cells [5]): brighter than Example 1
- major intracellular target (U-2 OS cells [7]): Glutathione (GSH)
- cellular staining pattern (U-2 OS cells [6]): prominent in nuclear area and diffuse stain in the cytoplasm, with low staining in the cell periphery

- absorption maximum ([4]; in water): 408 nm
- emission maximum ([4]; in water): 512 nm
SMILES: N[C@H](CCC(=O)N[C@H](CSCc1cc(=O)oc2c3c4c(cc12)CCCN4CCC3)C(=O)NCC(=O)O)C(=O)O [Example 3, glutathione adduct of 2,3,6,7-tetrahydro-9-bromomethyl-1H,5H-quinolizino(9,1-gh)coumarin]

SMILES: CC1=CC(=O)c2ccccc2C1=O [MNQ, 2-methyl-1,4-naphthoquinone]
- effect on Example 2 staining intensity (U-2 OS cells [2]): decrease of staining at high toxicant concentrations

SMILES: O=C1C=CC(=O)c2ccccc21 [NQ, 1,4-naphthoquinone]
- effect on Example 2 staining intensity (U-2 OS cells [2]): decrease of staining at high toxicant concentrations
